{"source": "patent US12673956B2", "about": "“Oxadiazolyl dihydropyrano[2,3-b]pyridine inhibitors of HIPK2 for treating kidney fibrosis” (ICAHN SCHOOL OF MEDICINE AT MOUNT SINAI, priority 2021, dated 2026)", "key": {"[1]": {"system": "TGF/SMAD Signaling Pathway SBE Reporter—HEK293 Cell Line", "assay": "Luciferase screen, TGF/SMAD SBE reporter HEK293 cells stimulated with TGFβ", "assay_type": "cell-based", "conditions": "Homo sapiens", "description": "For the data in Table 1, the Bight-Glo™ Luciferase Assay System from Promega was used with TGF/SMAD Signaling Pathway SBE Reporter—HEK293 Cell Line from BPSbioscience. On day 1 SBE reporter-HEK293 cells were seeded at a density of 25,000 cells per well into a white clear-bottom 96-well microplate in 100 μl of growth medium without geneticin. The plate was incubated at 37° C. in a CO2 incubator for 24 hrs. The wells were renewed with 60 μL assay medium and treated with test compounds by adding 5 μL of compounds in medium. The concentration of test compound in medium is adjusted so that 5 μL will provide the desired molarity of the solution. For example, if the desired test concentration is 30 µM, then 5 μL of […] compound is added. After 4 hours, TGFβ was added to 10 ng/mL. The plate was incubated at 37° C. in a CO2 incubator overnight (18 hours). One hour prior to assay all medium was replaced. The luciferase assay was run using ONE-Step™ Luciferase Assay System by adding 100 al of ONE-Step™ Luciferase reagent per well, rocking at room temperature for ~15 to 30 minutes and measuring luminescence using a luminometer. The signals were normalized to percentage inhibition, with non-TGF treated cells as 100% inhibition, and the data were processed by Graphpad Prism."}, "Col4a3-deficient mice": {"system": "Col4a3-deficient mice", "assay": "Col4a3-deficient mice, model of Alport syndrome (chronic kidney disease)", "assay_type": "in vivo", "conditions": "60 mg/kg daily PO", "description": "(§1) Activity of compounds of the invention was confirmed in vivo. Two chronic kidney disease models were employed: (1) Tg26 mice, a model of HIV-associated nephropathy, and (2) Col4a3-null mice, a model of Alport syndrome. Both CKD models are characterized by advanced glomerulosclerosis and tubulointerstitial fibrosis, leading to kidney failure and death approximately between 12 and 20 weeks of age.\nThree-week old Col4a3-deficient mice were treated with Example 13 (60 mg/kg daily, PO) or vehicle for 6 weeks. The median survival in vehicle group was 56 days, which was increased to 68 days in the treated group (21% increase)."}, "Tg26 mice": {"system": "Tg26 mice", "assay": "Tg26 mice, model of HIV-associated nephropathy (chronic kidney disease)", "assay_type": "in vivo", "source_text": "as §1\nTg26 mice of FVB/N genetic background bearing a defective HIV-1 provirus lacking gag-pol have been described by Feng et al. [J Am Soc Nephrol 2009; 20: 2138-2146]. Six-week old heterozygous Tg26 mice are used. Wildtype littermates are used as controls. Mice in the treatment group receive test compound dissolved in 20% NMP, 60% PEG400, and 20% H2O by oral gavage at a dose of 30, 60, or 90 mg/kg body weight per day. Mice in the control group receive the same volume of vehicle. The mice are treated for a total of 4 weeks and sacrificed at age of 10 weeks. […] In another trial, 5- to 6-week old Tg26 mice were treated with Example 13 (90 mg/kg daily, PO) or vehicle for 4 weeks: 38% (8/21 mice) died of kidney failure in the control group within the experimental duration; 0% died in the HIPK2i-174 group (0/18 mice). […] [Because of significant inter-variability of baseline UACR in Tg26 mice at 5-6 weeks of age, the therapeutic effect is calculated based on fold change to baseline for each mouse.]"}, "[2]": {"conditions": "SBE reporter-HEK293 cells, TGFβ 10 ng/mL, 18 hours, read-out: Luciferase IC50"}, "[3]": {"conditions": "another trial, 90 mg/kg daily PO, 4 weeks"}, "[4]": {"conditions": "first trial, four-week treatment, n=8"}, "[5]": {"conditions": "first trial, four-week treatment, vs. vehicle"}}, "note": "Like-named read-outs stand apart in the source and are kept apart here.", "data": [{"smiles": "CC1(C)Oc2ncc(-c3nc(-c4ccc(Cl)cc4)no3)cc2CC1O", "note": "(stereo in doubt) [Example 13, (S)-6-(3-(4-chlorophenyl)-1,2,4-oxadiazol-5-yl)-2,2-dimethyl-3,4-dihydro-2H-pyrano[2,3-b]pyridin-3-ol]", "values": [{"measurement": "IC50", "setting": "[1]; [2]", "result": 156, "unit": "nM"}, {"measurement": "increase of median survival vs. vehicle group", "setting": "Col4a3-deficient mice; 6 weeks", "result": 21, "unit": "%"}, {"measurement": "reduction in kidney fibrosis (picrosirius red staining) in comparison to vehicle group", "setting": "Col4a3-deficient mice; 6 weeks", "result": "~ 51%"}, {"measurement": "kidney fibrosis assessed by picrosirius red histological staining", "setting": "Col4a3-deficient mice; 6 weeks, n=9", "result": "13.7±6.3", "unit": "%"}, {"measurement": "reduction of urinary albumin-to-creatinine ratio vs. vehicle", "setting": "Col4a3-deficient mice; after 6 weeks of treatment", "result": "~ 45%"}, {"measurement": "urinary albumin-to-creatinine ratio", "setting": "Col4a3-deficient mice; after 6 weeks of treatment", "result": "41.4 ± 14.2", "unit": "mg/mg"}, {"measurement": "median survival", "setting": "Col4a3-deficient mice; three-week old mice, 6 weeks", "result": 68, "unit": "days"}, {"measurement": "reduction in kidney fibrosis (picrosirius red staining) in comparison to vehicle group", "setting": "Tg26 mice; [3]", "result": "~ 37%"}, {"measurement": "reduction of urinary albumin-to-creatinine ratio from baseline values", "setting": "Tg26 mice; [3]", "result": "~ 57%"}, {"measurement": "urinary albumin-to-creatinine ratio, fold change to baseline", "setting": "Tg26 mice; another trial, 90 mg/kg daily PO, 4 weeks, n=17", "result": "0.43±0.28"}, {"measurement": "kidney fibrosis assessed by picrosirius red histological staining", "setting": "Tg26 mice; another trial, 90 mg/kg daily PO, 4 weeks, n=18", "result": "2.8±1.2", "unit": "%"}, {"measurement": "died of kidney failure within the experimental duration", "setting": "Tg26 mice; another trial, 5- to 6-week old Tg26 mice, 90 mg/kg daily PO, 4 weeks, 0/18 mice", "result": 0, "unit": "%"}, {"measurement": "Hazard ratio comparing vehicle vs. treatment", "setting": "Tg26 mice; first trial, four-week treatment, Log-rank Mantel-Cox test", "result": 7.2}, {"measurement": "average fold change in urinary albumin-to-creatinine ratio from week 0 to week 4", "setting": "Tg26 mice; [4]", "result": 0.352}, {"measurement": "renal fibrosis, average % area", "setting": "Tg26 mice; [4]", "result": 2.540, "unit": "%"}, {"measurement": "reduction in average fold change in urinary albumin-to-creatinine ratio", "setting": "Tg26 mice; [5]", "result": "~ 65%"}, {"measurement": "reduction in renal fibrosis area", "setting": "Tg26 mice; [5]", "result": "~ 43%"}, {"measurement": "survival", "setting": "Tg26 mice; first trial, six-week old Tg26 mice, oral gavage 30, 60, or 90 mg/kg per day, four-week treatment, n=20", "result": 100, "unit": "%"}]}, {"smiles": "Cc1cc(-c2noc(-c3cnc4c(c3)C[C@@H](O)C(C)(C)O4)n2)ccc1Cl", "note": "[Example 37, (3R)-6-[3-(4-chloro-3-methyl-phenyl)-1,2,4-oxadiazol-5-yl]-2,2-dimethyl-3,4-dihydropyrano[2,3-b]pyridin-3-ol]", "values": [{"measurement": "IC50", "setting": "[1]; [2]", "result": 50, "unit": "nM"}]}, {"smiles": "CC1(C)Oc2ncc(-c3nc(-c4cccc(F)c4)no3)cc2C[C@H]1O", "note": "[Example 38, (R)-6-(3-(3-fluorophenyl)-1,2,4-oxadiazol-5-yl)-2,2-dimethyl-3,4-dihydro-2H-pyrano[2,3-b]pyridin-3-ol]", "values": [{"measurement": "IC50", "setting": "[1]; [2]", "result": 148, "unit": "nM"}]}, {"smiles": "CC1(C)Oc2ncc(-c3nc(-c4cc(Cl)cc(Cl)c4)no3)cc2C[C@@H]1O", "note": "[Example 39, (S)-6-(3-(3,5-dichlorophenyl)-1,2,4-oxadiazol-5-yl)-2,2-dimethyl-3,4-dihydro-2H-pyrano[2,3-b]pyridin-3-ol]", "values": [{"measurement": "IC50", "setting": "[1]; HEK293, 18 h, read-out: Luciferase IC50 nM", "result": 1250, "unit": "nM"}]}, {"smiles": "CC1(C)Oc2ncc(-c3nc(-c4cc(Cl)cc(Cl)c4)no3)cc2C[C@H]1O", "note": "[Example 40, (R)-6-(3-(3,5-dichlorophenyl)-1,2,4-oxadiazol-5-yl)-2,2-dimethyl-3,4-dihydro-2H-pyrano[2,3-b]pyridin-3-ol]", "values": [{"measurement": "IC50", "setting": "[1]; [2]", "result": 843, "unit": "nM"}]}]}
